Measurements from US6610675B1 (priority 1980, dated 2003).

Tests used:
Type in all cases: in vivo, rat
[1] = system: thymus weight in rats; experiment: Thymus inhibition testing (subcutaneous administration); conditions: for Body weight gain / Thymus / Thymus Inhibition: Table VII, three days
Outline: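 Male Sprague-Dawley rats were dosed systemically. On the fifth day, 48 hours after the last treatment, animals were sacrificed and thymus weights recorded.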

[2] = system: ear swelling induced by croton oil; experiment: Ear edema test; conditions: 1 mg/kg topical, 6 hr
Experimental: The test animals were Sprague/Dawley rats weighing approximately 150 grams each. In treatment groups, selected amounts of the test compound were dissolved in acetone containing 5% croton oil and 50 microliters of the solution were applied to the inner surface of the right ear of the rats. A control group was identically treated with vehicle only, i.e. 5% croton oil in acetone. Six hours after croton oil challenge, a constant region of each ear was removed by dissection under anesthesia. Then, 48 hours after steroid treatment, the animals were sacrificed and the thymi and adrenals were removed and weighed. The test results showing the inhibitory effect of topically applied steroids on the ear swelling induced by croton oil are summarized in Table II below.

[3] = system: granulation tissue formation caused by implantation of cotton pellets; experiment: Granuloma formation test (local cotton pellet granuloma assay)
Experimental: The test compound was dissolved in acetone and aliquots of varying concentrations were injected into cotton pellets. The pellets were dried and then one pellet was implanted beneath the skin of each test rat. Six days later, the animals were sacrificed and the granulation tissue (granuloma) which formed in and around the implanted pellet was removed, dried and weighed. In addition, the thymi and adrenals were removed and weighed.

`CCCC(=O)O[C@]1(C(=O)CO)CC[C@H]2[C@@H]3CCC4=CC(=O)CC[C@]4(C)[C@H]3[C@@H](O)C[C@@]21C` [Hydrocortisone 17-butyrate, reference compound] was tested, and the Body weight gain ([1]; 0.3 mg/kg/day s.c.) was 17.0 ± 0.8 g, the Thymus ([1]; 0.3 mg/kg/day s.c.) was 441 ± 27 mg and the “Thymus Inhibition” value ([1]; 0.3 mg/kg/day s.c.) was 6.4%. The Body weight gain ([1]; 1 mg/kg/day s.c.) was 11.8 ± 0.8 g, the Thymus ([1]; 1 mg/kg/day s.c.) was 323 ± 16 mg and the “Thymus Inhibition” value ([1]; 1 mg/kg/day s.c.) was 31.4%. The Body weight gain ([1]; 3 mg/kg/day s.c.) was 7.3 ± 0.5 g, the Thymus ([1]; 3 mg/kg/day s.c.) was 166 ± 5 mg and the “Thymus Inhibition” value ([1]; 3 mg/kg/day s.c.) was 64.8%. For the same compound, the Body weight gain ([1]; 10 mg/kg/day s.c.) was -5.0 ± 1.1 g, the Thymus ([1]; 10 mg/kg/day s.c.) was 65 ± 5 mg and the “Thymus Inhibition” value ([1]; 10 mg/kg/day s.c.) was 86.2%. It also gave a TED40 ([1]; Table X, dose required to achieve 40% inhibition of thymi weight, subcutaneous) of 1.3 mg, a TED50 ([1]; Table X, dose required to achieve 50% inhibition of thymi weight, subcutaneous) of 2.0 mg and a TED40 ([1]; Table XII, thymus inhibition effect, subcutaneously) of 1.3 mg/kg. For the same compound, the “Ear Weight, % Increase” value [2] was −3.6 ± 3.5 %, the “Ear Weight, % Inhibition” value [2] was 106.0% and the “Ear Weight, Inflamed Ear” value [2] was 50.0 ± 2.3 mg. For the same compound, the “Ear Weight, Untreated Ear” value [2] was 52.0 ± 2.5 mg, the Body wt. gain ([3]; Table III, 1 mg/pellet) was 33.4 ± 1.4 g and the “Granulation tissue Dry wt.” value ([3]; Table III, 1 mg/pellet) was 32.2 ± 5.0 mg/100 g body wt. For the same compound, the “Granulation tissue Inhibition” value ([3]; Table III, 1 mg/pellet) was 26.3%, the Body wt. gain ([3]; Table III, 3 mg/pellet) was 15.9 ± 1.4 g and the “Granulation tissue Dry wt.” value ([3]; Table III, 3 mg/pellet) was 21.6 ± 2.2 mg/100 g body wt. For the same compound, the “Granulation tissue Inhibition” value ([3]; Table III, 3 mg/pellet) was 50.6%, the Body wt. gain ([3]; Table III, 10 mg/pellet) was 4.9 ± 1.0 g and the “Granulation tissue Dry wt.” value ([3]; Table III, 10 mg/pellet) was 29.2 ± 3.1 mg/100 g body wt. The “Granulation tissue Inhibition” value ([3]; Table III, 10 mg/pellet) was 33.2%, the Body wt. gain ([3]; Table IV, 300 μg/pellet) was 26.2 ± 1.7 g and the “Granulation tissue Dry wt.” value ([3]; Table IV, 300 μg/pellet) was 34.0 ± 5.3 mg. For the same compound, the “Granulation tissue Dry wt. Inhibition” value ([3]; Table IV, 300 μg/pellet) was 58.1%, the “Granulation tissue Wet wt.” value ([3]; Table IV, 300 μg/pellet) was 333 ± 21 mg and the “Granulation tissue Wet wt. Inhibition” value ([3]; Table IV, 300 μg/pellet) was 41.2%. For the same compound, the Thymus wt. ([3]; Table IV, 300 μg/pellet) was 353 ± 37 mg, the “Thymus wt. (Decrease %)” value ([3]; Table IV, 300 μg/pellet) was “(20.7) %” and the Body wt. gain ([3]; Table IV, 1000 μg/pellet) was 26.2 ± 1.2 g. For the same compound, the “Granulation tissue Dry wt.” value ([3]; Table IV, 1000 μg/pellet) was 35.3 ± 4.2 mg, the “Granulation tissue Dry wt. Inhibition” value ([3]; Table IV, 1000 μg/pellet) was 56.5% and the “Granulation tissue Wet wt.” value ([3]; Table IV, 1000 μg/pellet) was 366 ± 24 mg. The “Granulation tissue Wet wt. Inhibition” value ([3]; Table IV, 1000 μg/pellet) was 35.3%, the Thymus wt. ([3]; Table IV, 1000 μg/pellet) was 99 ± 7 mg and the “Thymus wt. (Decrease %)” value ([3]; Table IV, 1000 μg/pellet) was “(77.8) %”. The Body wt. gain ([3]; Table IV, 3000 μg/pellet) was 6.7 ± 2.2 g, the “Granulation tissue Dry wt.” value ([3]; Table IV, 3000 μg/pellet) was 28.0 ± 2.7 mg and the “Granulation tissue Dry wt. Inhibition” value ([3]; Table IV, 3000 μg/pellet) was 65.5%. For the same compound, the “Granulation tissue Wet wt.” value ([3]; Table IV, 3000 μg/pellet) was 329 ± 14 mg, the “Granulation tissue Wet wt. Inhibition” value ([3]; Table IV, 3000 μg/pellet) was 41.9% and the Thymus wt. ([3]; Table IV, 3000 μg/pellet) was 58 ± 5 mg. For the same compound, the “Thymus wt. (Decrease %)” value ([3]; Table IV, 3000 μg/pellet) was “(87.0) %”, the Body wt. gain ([3]; Table IV, 10000 μg/pellet) was -2.0 ± 2.4 g and the “Granulation tissue Dry wt.” value ([3]; Table IV, 10000 μg/pellet) was 27.2 ± 2.4 mg. The “Granulation tissue Dry wt. Inhibition” value ([3]; Table IV, 10000 μg/pellet) was 66.5%, the “Granulation tissue Wet wt.” value ([3]; Table IV, 10000 μg/pellet) was 311 ± 7 mg and the “Granulation tissue Wet wt. Inhibition” value ([3]; Table IV, 10000 μg/pellet) was 45.1%. For the same compound, the Thymus wt. ([3]; Table IV, 10000 μg/pellet) was 46 ± 7 mg, the “Thymus wt. (Decrease %)” value ([3]; Table IV, 10000 μg/pellet) was “(89.7) %” and the ED50 ([3]; Table XII, anti-inflammatory effect in cotton pellet granuloma) was 480 μg/pellet. It also gave an ED60 ([3]; dose causing 60% inhibition of granulation tissue weight) of 1015 μg/pellet.
